Structures are written as SMILES.

For the assay, the target named is His-tagged recombinant human TrkA (Homo sapiens (Human), UniProt P04629). In words: TrkA LanthaScreen Eu Kinase Binding Assay. The conditions noted are these: averaged IC50; LanthaScreen binding assay of Example A; read-out: TrkA Enzyme IC50. How it is done: TrkA binding activity was determined in a TrkA LanthaScreen™ Eu Kinase Binding Assay. 5 nM His-tagged recombinant human TrkA (6HIS tagged cytoplasmic domain from Invitrogen, Catalog No. PV3144) was incubated with 4 nM Alexa-Fluor® Tracer 236 (Invitrogen Cat. No. PV5592), 2 nM biotinylated anti-His (Invitrogen Cat. No. PV6090), and 2 nM europium-labeled Streptavidin (Invitrogen Cat. No. PV5899), in buffer (25 mM MOPS, pH 7.5, 5 mM MgCl2, 0.005% Triton X-100). Three fold serial dilutions of compounds of the invention in DMSO were added to a final percentage of 2% DMSO. After 60-minute incubation at 22° C., the reaction was measured using the EnVision mutlimode plate reader (PerkinElmer) via TR-FRET dual wavelength detection at […]. The percent of control was calculated using a ratiometric emission factor. The IC50 values were determined by fitting a four parameter model to the percent of control data.
His-tagged recombinant human TrkA, sequence (P04629 440-796): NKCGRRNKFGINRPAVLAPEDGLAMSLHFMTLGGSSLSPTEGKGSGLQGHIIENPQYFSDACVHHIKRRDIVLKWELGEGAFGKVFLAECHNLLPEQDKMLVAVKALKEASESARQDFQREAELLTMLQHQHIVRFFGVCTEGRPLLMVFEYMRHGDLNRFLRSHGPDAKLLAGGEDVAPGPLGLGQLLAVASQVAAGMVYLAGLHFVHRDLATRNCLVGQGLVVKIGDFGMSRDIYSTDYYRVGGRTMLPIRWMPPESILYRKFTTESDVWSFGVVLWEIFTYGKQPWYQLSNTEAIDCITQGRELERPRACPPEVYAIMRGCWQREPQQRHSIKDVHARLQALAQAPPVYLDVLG
Table A provides averaged IC50 values for compounds of the invention when tested in the assay of Example A, where A represents an averaged IC50 value<100 nM.
Turning to `COCCN1C[C@@H](NC(=O)Nc2c(C)c(-c3ccc(=O)n(C)n3)nn2-c2ccccc2)[C@H](c2cc(F)cc(F)c2)C1` [Example 19, 1-((3S,4R)-4-(3,5-difluorophenyl)-1-(2-methoxyethyl)pyrrolidin-3-yl)-3-(4-methyl-3-(1-methyl-6-oxo-1,6-dihydropyridazin-3-yl)-1-phenyl-1H-pyrazol-5-yl)urea], the IC50 (commonly the concentration at which inhibition is half-maximal) was less than 100 nM.
With `COCCN1C[C@@H](NC(=O)Nc2c(C)c(-c3cnc(NC4CC4)nc3)nn2-c2ccccc2)[C@H](c2ccc(F)c(F)c2)C1` [Example 20, 1-(3-(2-(cyclopropylamino)pyrimidin-5-yl)-4-methyl-1-phenyl-1H-pyrazol-5-yl)-3-((3S,4R)-4-(3,4-difluorophenyl)-1-(2-methoxyethyl)pyrrolidin-3-yl)urea], the half-maximal inhibitory concentration (IC50) is less than 100 nM.
`COCCN1C[C@@H](NC(=O)Nc2c(C)c(-c3ccc(=O)n(C)c3)nn2-c2ccccc2)[C@H](c2ccc(F)c(Cl)c2)C1` (relative stereo) [Example 22, 1-(trans-4-(3-chloro-4-fluorophenyl)-1-(2-methoxyethyl)pyrrolidin-3-yl)-3-(4-methyl-3-(1-methyl-6-oxo-1,6-dihydropyridin-3-yl)-1-phenyl-1H-pyrazol-5-yl)urea]: the half-maximal inhibitory concentration (IC50) was less than 100 nM.
On to `COCCN1C[C@@H](NC(=O)Nc2c(C)c(-c3ccc(=O)n(C)c3)nn2-c2ccccc2)[C@H](c2cc(F)c(F)c(F)c2)C1` [Example 26, 1-((3S,4R)-1-(2-methoxyethyl)-4-(3,4,5-trifluorophenyl)pyrrolidin-3-yl)-3-(4-methyl-3-(1-methyl-6-oxo-1,6-dihydropyridin-3-yl)-1-phenyl-1H-pyrazol-5-yl)urea], for which the IC50 was less than 100 nM.
Regarding `COCCN1C[C@@H](NC(=O)Nc2c(C)c(-c3cnc(C4CC4)nc3)nn2-c2ccccc2)[C@H](c2ccc(F)c(F)c2)C1` [Example 10, 1-(3-(2-cyclopropylpyrimidin-5-yl)-4-methyl-1-phenyl-1H-pyrazol-5-yl)-3-((3S,4R)-4-(3,4-difluorophenyl)-1-(2-methoxyethyl)pyrrolidin-3-yl)urea], the IC50 is less than 100 nM.
